From ChEMBL document CHEMBL1201862, “PubChem BioAssay data set” (2004)
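1) Cells in 96-well plates. 2) Compound, 48 h, 5 concentrations. 3) Linear interpolation between surrounding doses. 4) Unreached endpoint = highest concentration. At the GI50, growth is halved.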 Active and inactive are the calls of the source. Rule as the data show it: active = GI50 up to about 1.1 µM and inactive = higher.

What was measured:
Assay in all cases: NCI-60 cell line screen, 48 h
[1] = system: UO-31
[2] = system: HCC 2998
[3] = system: OVCAR-8
[4] = system: SW-620
[5] = system: M14
[6] = system: NCI-H23
[7] = system: CAKI-1
[8] = system: EKVX
[9] = system: SF-268
[10] = system: SNB-75
[11] = system: LXFL 529
[12] = system: HCT-116
[13] = system: A549
[14] = system: OVCAR-3
[15] = system: SK-MEL-2
[16] = system: BT-549
[17] = system: MDA-N
[18] = system: MDA-MB-231
[19] = system: Hs-578T
[20] = system: MDA-MB-435

SMILES | GI50 [1] | GI50 [2] | GI50 [3] | GI50 [4] | GI50 [5] | GI50 [6] | GI50 [7] | GI50 [8] | GI50 [9] | GI50 [10] | GI50 [11] | GI50 [12] | GI50 [13] | GI50 [14] | GI50 [15] | GI50 [16] | GI50 [17] | GI50 [18] | GI50 [19] | GI50 [20]
COc1cc2c(cc1O)[C@@]1(Cc3ccc(OC)c(OC)c3)CCC(=O)N1CC2 | 63.2 µM (inactive) | > 100 µM (inactive) | > 100 µM (inactive) | > 10 µM (inactive) | > 100 µM (inactive) | > 100 µM (inactive) | > 100 µM (inactive) | > 100 µM (inactive) | > 100 µM (inactive) | > 100 µM (inactive) | > 100 µM (inactive) | > 100 µM (inactive) | > 100 µM (inactive) | > 100 µM (inactive) |  |  |  |  |  | 
COc1cc(C)c(O)c(C(=O)O)c1 | > 100 µM (inactive) | > 100 µM (inactive) | > 100 µM (inactive) | > 100 µM (inactive) | > 100 µM (inactive) | > 100 µM (inactive) | > 100 µM (inactive) |  | > 100 µM (inactive) | > 100 µM (inactive) | > 100 µM (inactive) | > 100 µM (inactive) | > 100 µM (inactive) | > 100 µM (inactive) | > 100 µM (inactive) |  |  |  |  | 
C[C@]1(CO)CCC[C@@]2(C)C1CC[C@H]1CC3C[C@]12CC[C@]3(C)O (some centres not stated) | > 10 µM (inactive) | 58.9 µM (inactive) | > 100 µM (inactive) | > 100 µM (inactive) | > 100 µM (inactive) | 83.8 µM (inactive) | > 100 µM (inactive) |  | > 100 µM (inactive) | 30.8 µM (inactive) | 2.86 µM (inactive) | 49.8 µM (inactive) | 70.5 µM (inactive) | > 100 µM (inactive) |  |  |  |  |  | 
C=CC1(NS(=O)(=O)c2ccc(C)cc2)CCC(C(C)(C)C)CC1 (configuration not stated) | > 100 µM (inactive) | > 100 µM (inactive) | 52.8 µM (inactive) | > 100 µM (inactive) | 98.6 µM (inactive) |  | > 100 µM (inactive) |  | 27 µM (inactive) | 17.8 µM (inactive) | 99.5 µM (inactive) | > 100 µM (inactive) | 80.9 µM (inactive) | 21.6 µM (inactive) | 60.7 µM (inactive) |  |  |  |  | 
CCN(CC)C(=S)SC(=S)N(CC)CC | 30.3 µM (inactive) | 1.93 µM (inactive) | 31.6 µM (inactive) | 28.6 µM (inactive) | 44.5 µM (inactive) | 26.2 µM (inactive) | 36.1 µM (inactive) | 42.6 µM (inactive) | 41.9 µM (inactive) | 31.3 µM (inactive) |  | 21 µM (inactive) | 28.5 µM (inactive) | 37 µM (inactive) | 31.3 µM (inactive) | 27.3 µM (inactive) | 43.4 µM (inactive) | 32.9 µM (inactive) | 50.7 µM (inactive) | 34.1 µM (inactive)
CCOC(=O)Oc1c(OC)cc(C(=O)NC2CCc3cc(OC)c(OC)c(OC)c3-c3ccc(SC)c(=O)cc32)cc1OC (configuration not stated) | 1.5 µM (inactive) | 0.0473 µM (active) | 0.092 µM (active) | 0.0419 µM (active) | 0.138 µM (active) | 0.0439 µM (active) |  | 0.16 µM (active) | 0.0916 µM (active) | 0.071 µM (active) | 0.0386 µM (active) | 0.0566 µM (active) | 0.428 µM (active) | 0.0322 µM (active) | 0.0466 µM (active) |  |  |  |  | 
O=C1CCCN(c2ccccc2)N1 | > 100 µM (inactive) | > 100 µM (inactive) | > 100 µM (inactive) | > 100 µM (inactive) | > 100 µM (inactive) |  | > 100 µM (inactive) | > 100 µM (inactive) | > 100 µM (inactive) | > 100 µM (inactive) | > 100 µM (inactive) | > 100 µM (inactive) | > 100 µM (inactive) | > 100 µM (inactive) | > 100 µM (inactive) |  |  |  |  | 
C=C1C(=O)O[C@H]2C3C(=C(C)CC[C@@H]12)C(=O)[C@@H]1OC31C (some centres not stated) | 4.89 µM (inactive) | 14.7 µM (inactive) | 2.18 µM (inactive) | 0.685 µM (active) | 1.68 µM (inactive) | 2.21 µM (inactive) | 2.67 µM (inactive) | 14.4 µM (inactive) | 5.19 µM (inactive) | 2.38 µM (inactive) |  | 1.11 µM (active) | 13 µM (inactive) | 2 µM (inactive) | 4.48 µM (inactive) | 1.95 µM (inactive) | 1.75 µM (inactive) | 3.94 µM (inactive) | 3.03 µM (inactive) | 2.72 µM (inactive)
COc1cc([C@@H]2c3cc4c(cc3C(N)C3COC(=O)[C@@H]32)OCO4)cc(OC)c1O (some centres not stated) | 0.695 µM (active) | 0.249 µM (active) | 0.308 µM (active) | 0.301 µM (active) | 0.269 µM (active) | 0.373 µM (active) | 0.163 µM (active) |  | 0.399 µM (active) | 0.133 µM (active) | 0.117 µM (active) | 0.33 µM (active) | 0.337 µM (active) |  |  |  |  |  |  | 
